According to patent US12304912B2, “Fused bicyclic RAF inhibitors and methods for use thereof” (Jazz Pharmaceuticals Ireland Limited, priority 2020, dated 2025):

Columns and labels:
[1] = Microsomal stability assay, mouse liver microsomes (MLM); assay type: in vitro ADME; settings: 0.5 mg/mL protein, 1 μM substrate
Procedure, shortened: (§1)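 Substrate depletion: 1 μM compound incubated at 37° C. with cryopreserved mouse or human liver microsomes at 0.5 mg·mL^−1 protein. Timed aliquots quenched in ice-cold organic solvent and measured by LC-MS/MS; t1/2 and CLint derived from the slope of ln % remaining versus time.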

[2] = Microsomal stability assay, human liver microsomes (HLM); assay type: in vitro ADME; settings: 0.5 mg/mL protein, 1 μM substrate
Procedure, shortened: as §1

[3] = Plasma protein binding assay, human plasma (hPPB); assay type: in vitro ADME; settings: 5 μM, equilibrium dialysis 4 hours 37° C.
Procedure, shortened: (§2)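 Equilibrium dialysis of 5 μM compound in previously frozen human or mouse plasma against phosphate buffer, 4 h at 37 °C. Both chambers quantified by LC-MS/MS; % free = (1−((PC−PF)/PC))×100.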

[4] = Solubility (Sol), medium not stated; assay type: physicochemical; settings: cells not marked (FESSIF)
[5] = tested on: RAF dimers in HCT-116 cells; assay: HCT-116 AlphaLISA SureFire pERK1/2 cellular assay (dimer); assay type: cell-based; settings: Homo sapiens, HCT-116; HCT116 cells pre-dosed with 1 μM Encorafenib, 1 hr; read-out: pERK HCT116 dimer (1 hr) pIC50 (converted)
Description: (§3) The human HCT-116 colorectal carcinoma cell line (ATCC CCL-247) endogenously expresses the KRAS^G13D mutation, which leads to constitutive activation of the MAP kinase pathway and phosphorylation of ERK. […] Assay read outs took place 2 or 24 hours after dosing with compounds. On the first day, HCT-116 cells were harvested, resuspended in growth medium (McCoys5A with Glutamax (Life Technologies 36600021) and 10% heat-inactivated fetal bovine serum (Sigma F9665)), and counted. Cells were plated in 100 μl per well in each well of a 96-well culture dish (Sigma CLS3598) to a final density of 30,000 (2 hr read) or 15,000 (24 hr read) cells per well and incubated over night at 37° C. and 5% CO2. On day 2, the growth medium was exchanged for dosing medium (McCoys5A with Glutamax (Life Technologies 36600021) and 1% heat-inactivated fetal bovine serum (Sigma F9665)) and the cells were dosed with compounds to produce a 10-point dose response, where the top concentration was 1 μM and subsequent concentrations were at 1/3 log dilution intervals. A matched DMSO control was included. The cells were subsequently incubated for either 2 or 24 hours at 37° C. and 5% CO2. After incubation, media was removed and the cells were incubated with lysis buffer containing phosphatase inhibitors for 15 minutes at room temperature. Cell lysates were transferred to a 12 area 96 well white Optiplate™ (Perkin Elmer 6005569) and incubated with anti-mouse IgG acceptor beads, a biotinylated anti-ERK1/2 rabbit antibody recognizing both phosphorylated and non-phosphorylated ERK1/2, a mouse antibody targeted to the Thr202/Tyr204 epitope and recognizing phosphorylated ERK proteins only, and streptavidin-coated donor beads. The biotinylated antibody binds to the streptavidin-coated donor beads and the phopsho-ERK1/2 antibody binds to the acceptor beads. Plates were read on an EnVision reader (Perkin Elmer) and excitation of the beads at 680 nm with a laser induced the release of singlet oxygen molecules from the donor beads that trigger energy transfer to the acceptor beads in close proximity, producing a signal that can be measured at […]. Both antibodies bound to phosphorylated ERK proteins, bringing the donor and acceptor beads into close proximity. All data were analyzed using the Dotmatics or GraphPad Prism software packages. Inhibition of ERK phosphorylation was assessed by determination of the absolute IC50 value, which is defined as the concentration of compound required to decrease the level of phosphorylated ERK proteins by 50% when compared to DMSO control.
HCT-116 AlphaLISA SureFire pERK1/2 Cellular Assay (Dimer)
The human HCT-116 colorectal carcinoma cell line (ATCC CCL-247) endogenously expresses the KRAS^G13D mutation, which leads to constitutive activation of the MAP kinase pathway and phosphorylation of ERK. First generation RAF inhibitors can promote RAF dimer formation in KRAS mutant tumours leading to a paradoxical activation of the pathway. To determine whether compounds can circumvent this problem and inhibit RAF dimers in HCT-116 cells, they were tested using AlphaLISA® SureFire® technology (Perkin Elmer p-ERK1/2 p-T202/Y204 assay kit ALSU-PERK-A10K). The main procedure is essentially the same as described above, with the following adjustments: Cells were seeded with the seeding density of 30,000 cells per well. On the second day (the day of dosing) no medium change was performed and the cells were dosed with 1 μM of Encorafenib for 1 hour (at 37° C. and 5% CO2) to induce RAF dimers and promote paradoxical dimer-dependent pERK signalling. After incubation, the cells were washed, 100 μl fresh growth medium was added, and cells were dosed with compounds of interest to produce a 10-point dose response, where the top concentration was 10 μM and subsequent concentrations are at 1/2 log dilution intervals. Cells were incubated for another hour at 37° C. and 5% CO2 before lysis and processing with the pERK AlphaLISA® SureFire® kit as described above. […]

[6] = tested on: BRAF monomers in A375 cells; assay: A375 AlphaLISA SureFire pERK1/2 cellular assay (monomer); assay type: cell-based; settings: Homo sapiens, A-375; A375 cells, 1 hr; read-out: pERK A375 (1 hr) pIC50 (converted)
Description: as §3
A375 AlphaLISA SureFire pERK1/2 Cellular Assay (Monomer)
The human A375 melanoma cell line (ATCC CRL-1619) endogenously expresses the BRAF^V600E mutation, which leads to constitutive activation of the MAP kinase pathway and phosphorylation of ERK. In BRAF^V600E mutant tumours, BRAF signals as a monomer to activate ERK. To determine whether compounds can inhibit BRAF monomers in A375 cells, they were tested using AlphaLISA® SureFire® technology (Perkin Elmer p-ERK1/2 p-T202/Y204 assay kit ALSU-PERK-A10K). The main procedure is essentially the same as described above for HCT-116 cells, with the following adjustments: The A375 cells were cultivated and dosed in Dulbecco's modified Eagle's medium containing 4.5 g/L D-glucose (Sigma D6546), 10% heat-inactivated fetal bovine serum (Sigma F9665), and 1% Sodium-Pyruvate (Sigma S8636), and seeded with a seeding density of 30,000 cells per well. No media exchange was performed before dosing with compounds to produce a 10-point dose response, where the top concentration was 10 μM and subsequent concentrations were at 1/2 log dilution intervals. Subsequently, the cells were incubated for 1 hour at 37° C. and 5% CO2 before lysis.

[7] = Plasma protein binding assay, mouse plasma (mPPB); assay type: in vitro ADME; settings: 5 μM, equilibrium dialysis 4 hours 37° C.
Procedure, shortened: as §2

Compound | microsomal CLint at 1 μM [1] | microsomal CLint at 1 μM [2] | hPPB (% free) [3] | Sol [4] | IC50 [5] | IC50 [6] | mPPB (% free) [7]
O=C1CCc2c(Oc3ccc4c(c3)CC(c3nc(-c5ccccc5C(F)(F)F)c[nH]3)CO4)ccnc2N1 (stereo not shown) [Compound 4, 5-[3-[4-[2-(trifluoromethyl)phenyl]-1H-imidazol-2-yl]chroman-6-yl]oxy-3,4-dihydro-1H-1,8-naphthyridin-2-one] | 121 µL/min/mg | 261 µL/min/mg | <0.1 % free | <1.3 mg/L | 269 nM | 97.7 nM | 0.5 % free
O=C1CCc2c(Oc3ccc4c(c3)CC(c3nc5c(C(F)(F)F)cccc5[nH]3)CO4)ccnc2N1 (stereo not shown) [Compound 27] | 148 µL/min/mg | 102 µL/min/mg | <0.1 % free | <1.2 mg/L | 380 nM | 389 nM | <0.1 % free
O=C1CCc2c(Oc3ccc4c(c3)CN(C(=O)NCc3ccccc3)CC4)ccnc2N1 [Compound 48] | 38.4 µL/min/mg | 40.5 µL/min/mg | 2 % free | <1.1 mg/L | 7240 nM | 9120 nM | 3 % free
O=C1CCc2c(Oc3ccc4c(c3)CC(c3nc(-c5ccc(C(F)(F)F)cc5)c[nH]3)CO4)ccnc2N1 (stereo not shown) [Compound 20, 5-[3-[4-[4-(trifluoromethyl)phenyl]-1H-imidazol-2-yl]chroman-6-yl]oxy-3,4-dihydro-1H-1,8-naphthyridin-2-one] | 3 µL/min/mg | 16.9 µL/min/mg | 0.1 % free | <1.3 mg/L | 603 nM | 741 nM | 0.1 % free
Cc1ccc(-c2c[nH]c(C3COc4ccc(Oc5ccnc6c5CCC(=O)N6)cc4C3)n2)cc1 (stereo not shown) [Compound 9, 5-[3-[4-(p-tolyl)-1H-imidazol-2-yl]chroman-6-yl]oxy-3,4-dihydro-1H-1,8-naphthyridin-2-one] | 6.1 µL/min/mg | 70.5 µL/min/mg | 0.6 % free | <1.1 mg/L | 186 nM | 331 nM | 0.4 % free
Cc1cc(C(F)(F)F)cc2nc(C3COc4ccc(Oc5ccnc6c5CCC(=O)N6)cc4C3)[nH]c12 (stereo not shown) [Compound 31] | 26 µL/min/mg | 34.6 µL/min/mg | <0.1 % free | <1.2 mg/L | 871 nM | 126 nM | 0.2 % free
COc1ccccc1-c1c[nH]c(C2COc3ccc(Oc4ccnc5c4CCC(=O)N5)cc3C2)n1 (stereo not shown) [Compound 1, 5-[3-[4-(2-methoxyphenyl)-1H-imidazol-2-yl]chroman-6-yl]oxy-3,4-dihydro-1H-1,8-naphthyridin-2-one] | 109 µL/min/mg | 123 µL/min/mg | 0.2 % free | <1.2 mg/L | 67.6 nM | 28.2 nM | 0.5 % free
N#Cc1ccc(-c2c[nH]c(C3COc4ccc(Oc5ccnc6c5CCC(=O)N6)cc4C3)n2)cc1 (stereo not shown) [Compound 21] | 23.2 µL/min/mg | 15.6 µL/min/mg | 0.7 % free | <1.2 mg/L | 275 nM | 933 nM | 1.6 % free
CC(C)NCc1cc(-c2c[nH]c(C3COc4ccc(Oc5ccnc6c5CCC(=O)N6)cc4C3)n2)cc(C(F)(F)F)c1 (stereo not shown) [Compound 6, 5-[3-[4-[3-[(isopropylamino)methyl]-5-(trifluoromethyl)phenyl]-1H-imidazol-2-yl]chroman-6-yl]oxy-3,4-dihydro-1H-1,8-naphthyridin-2-one] | 18.1 µL/min/mg | 33.4 µL/min/mg | 2.4 % free | <1.4 mg/L | 447 nM | 977 nM | 1.3 % free
Cc1cccc(-c2c[nH]c(C3COc4ccc(Oc5ccnc6c5CCC(=O)N6)cc4C3)n2)c1 (stereo not shown) [Compound 14, 5-[3-[4-(m-tolyl)-1H-imidazol-2-yl]chroman-6-yl]oxy-3,4-dihydro-1H-1,8-naphthyridin-2-one] | 51.3 µL/min/mg | 60.7 µL/min/mg | 0.1 % free | <1.1 mg/L | 75.9 nM | 18.2 nM | 0.5 % free
CN(C)Cc1cc(-c2c[nH]c(C3COc4ccc(Oc5ccnc6c5CCC(=O)N6)cc4C3)n2)cc(C(F)(F)F)c1 (stereo not shown) [Compound 7, 5-[3-[4-[3-[(dimethylamino)methyl]-5-(trifluoromethyl)phenyl]-1H-imidazol-2-yl]chroman-6-yl]oxy-3,4-dihydro-1H-1,8-naphthyridin-2-one] | 39.2 µL/min/mg | 67.9 µL/min/mg | 1.9 % free | <1.4 mg/L | 191 nM | 692 nM | 0.9 % free
O=C1CCc2c(Oc3ccc4c(c3)CC(c3nc(-c5ccc(Cl)cc5)c[nH]3)CO4)ccnc2N1 (stereo not shown) [Compound 11, 5-[3-[4-(4-chlorophenyl)-1H-imidazol-2-yl]chroman-6-yl]oxy-3,4-dihydro-1H-1,8-naphthyridin-2-one] | 29.1 µL/min/mg | 10.3 µL/min/mg | 0.5 % free | <1.2 mg/L | 214 nM | 257 nM | 0.1 % free
COc1ccc(-c2c[nH]c(C3COc4ccc(Oc5ccnc6c5CCC(=O)N6)cc4C3)n2)cc1 (stereo not shown) [Compound 10, 5-[3-[4-(4-methoxyphenyl)-1H-imidazol-2-yl]chroman-6-yl]oxy-3,4-dihydro-1H-1,8-naphthyridin-2-one] | 45.9 µL/min/mg | 89.1 µL/min/mg | 0.6 % free | <1.2 mg/L | 282 nM | 832 nM | 0.7 % free
